Experimental data: patent publication US11446352B2, “Compositions and methods for inhibiting tumor-induced immune suppression” (priority 2017, dated 2022)

What was measured:
AB1-HA tumor = settings: CTX treatment at Day 9; cited from earlier work
[1] = preclinical studies; cited from earlier work
KB-3-1 cervix carcinoma = settings: cited from earlier work
[2] = test system: Hs587T and MDA-MB-453 cell lines; experiment: autophagy, mitochondria content and mitophagy in treated cancer cells; assay type: cell-based, human; settings: Hs587T and MDA-MB-453 cell lines
Text: (§1) The first bar indicates 100% folding activity of RRL without inhibitor. PR22 indicates the antibody without PR but with RRL and EnnA. PR represents the antibody (PR22) with PR but without RRL. All other samples have PR22, PR, and RRL without (first bar) or with increased concentration of EnnA. FIGS. 1C-1E are line graphs of cell survival versus EnnA concentration (μM) in breast cancer cell lines Hs578T (FIG. 1C), […] (FIG. 1D) and MDA-MB231 (FIG. 1E) upon treatment with EnnA for 48 and 72 h. […] PR alone (PR), antibody (PR22)+RRL, PR+RRL without inhibitor (RRL), PR+RRL with 1 μM 17-AAG (17AAG) PR+RRL with 10 μM BEAU or EnnA. FIGS. 1G-1I are autoradiographs of Western blots of cytosols from various cell lines treated with 17-AAG (1 μM) or EnnA (3 μM) with antibodies against the specified proteins. FIG. 1J is an autoradiograph showing EnnA causes autophagy in Hs578T and MDA-MB453 cell lines. FIGS. 1K-1N are electron microscopy micrographs showing autophagosomes and reduced mitochondria content in Hs578T cells treated with DMSO or EnnA. FIGS. 1O-1P are fluorescence micrographs showing EnnA causing reduced mitochondria content in Hs578T cells. FIGS. 1Q-1BB are fluorescence micrographs showing mitophagy in Hsp578T cells treated with EnnA as indicated by colocalization of the mitochondria marker Cox4 and the autophagy marker LC3BII.

[3] = test system: Hsp90 chaperoning machine; experiment: progesterone receptor (PR) refolding assay using reticulocyte lysate (RRL); assay type: biochemical; settings: protein complex analysis; 10 μM EnnA, 1 μM 17-AAG
Text: as §1
A cell-free high-throughput screen (HTS) platform based on the progesterone receptor (PR) using reticulocyte lysate (RRL) as a source of molecular chaperones was used to screen 175 natural products (Patwardhan C A, et al., J Biomol Screen (2014)). This assay captures the physiological steps of PR refolding by the Hsp90 chaperoning machine and measures the recovery of its hormone-binding activities after mild heat treatment. It has the ability to identify inhibitors as well as activators of the core components of the Hsp90 chaperoning machine (i.e., Hsp90, Hsp70, Hsp40, Hsp90/Hsp70 organizing protein (HOP), and p23), including compounds that target chaperone complexes as well as individual proteins.

O=P1(N(CCCl)CCCl)NCCCO1 (centres unmarked) [CTX, Cyclophosphamide]
cure rate (AB1-HA tumor): 75%

CC(C)[C@H]1C(=O)O[C@H](C(C)C)C(=O)N(C)[C@@H](C(C)C)C(=O)O[C@H](C(C)C)C(=O)N(C)[C@@H](C(C)C)C(=O)O[C@H](C(C)C)C(=O)N1C [Enniatin B]
anti-angiogenic activity [1]: anti-angiogenic activity | reduction of tumor growth in combination with sorafenib (KB-3-1 cervix carcinoma): synergizes with sorafenib

C=CCNC1=C2C[C@@H](C)C[C@H](OC)[C@H](O)[C@@H](C)/C=C(\C)[C@H](OC(N)=O)[C@@H](OC)/C=C\C=C(/C)C(=O)NC(=CC1=O)C2=O [17-AAG, reference compound]
mode of cell death (apoptosis / autophagy) [2]: induces apoptosis | accumulation of Hsp70-rich PR complexes [3]: observed
